Data reported in paper PMC7835231, “Human organoid biofilm model for assessing antibiofilm activity of novel agents” (NPJ Biofilms and Microbiomes, 2021).
Entries after “also recorded” stand apart in the source; their conditions may differ.

What was measured:
[1] = system: MRSA-lux (MRSA SAP149) biofilm; experiment: One-day or three-day MRSA-lux biofilm on N/TERT epidermal skin model, CFU count and luminescence; assay type: cell-based, Staphylococcus aureus; details: for antibiofilm activity (CFU recovered) against pre-established MRSA-lux biofilm: peptide 0.1% topical, 5 to 6 biological replicates, Kruskal–Wallis, Dunn's test versus control; for geometric mean of MRSA-lux bacteria recovered: untreated 1.3 × 10^8 CFU/skin, geometric mean of 3 to 9 biological replicates
Text: (§1) Bacterial strains used in this study include USA300-LAC[56] (referred to as MRSA), and a luminescent MRSA strain SAP149[57] (referred to as MRSA-lux), Pseudomonas aeruginosa strain PAO1[58] and a luminescent strain of P. aeruginosa[59] (PAO1-lux). Bacteria strains used for confocal microscopy imaging include S. aureus USA300-LAC transformed with a pKK22 plasmid expressing a far-red fluorescent protein (MRSA-FarRed), as well as P. aeruginosa PAO1 (PAO1-mCherry), transformed with an mCherry expressing plasmid, pMCh-23[60]. All S. aureus strains were grown overnight in TSB containing 1% D-glucose at 37 °C with shaking at 180 rpm, sub-cultured to mid-exponential growth phase in TSB 1% D-glucose. Bacteria were harvested and resuspended in sterile PBS to a concentration of 2 × 10^8 CFU/ml before seeding onto skin surface. All P. aeruginosa strains were grown in LB under the same conditions as mentioned above, subcultured in LB medium, and resuspended in PBS at 2 × 10^8 CFU/ml before seeding.
(§2) Skin models were established using a modification of described methods. Briefly, 3 × 10^5 N/TERT cells in 400 μl DermaLife K Keratinocyte Complete Medium with LifeFactors (5 μg/ml rh Insulin LifeFactor, 6 mM L-Glutamine LifeFactor, 1 μM Epinephrine LifeFactor, 5 μg/ml Apo-Transferrin LifeFactor, 0.5 ng/ml rh TGF-α LifeFactor, 0.4% Extract P LifeFactor, 100 ng/ml Hydrocortisone Hemisuccinate LifeFactor) were seeded onto each filter insert (ThinCert™ Cell culture insert, Greiner bio-one, Kremsmünster, Austria) in a 12-well ThinCert™ Plate (Greiner bio-one) holding 4.1 ml/well DermaLife K Keratinocyte Complete Medium with LifeFactors below each filter. Medium was refreshed every second day until N/TERT cells reached confluency in 3-4 days. Culture media both on top and below the filter were then switched to DMEM/Ham’s F-12/CnT-Prime 3D Barrier Media in a 3:1:4 ratio supplemented with 0.1 μg/ml hydrocortisone, 0.125 μg/ml isoproterenol, 0.25 μg/ml bovine insulin, 26.5 pM selenious acid, 5 mM L-serine, 5 μM L-carnitine, 1.6 mg/ml BSA, 25 μM palmitic acid, 15 μM linoleic acid and 7 μM arachidonic acid. Medium on top of the filters was removed the next day to allow air-exposure, which induced differentiation and stratification of the epidermis. After 2–3 days, linoleic acid concentration was increased to 30 μM. The skin samples were cultured for 10 days at air–liquid interface at 37 °C and 7.3% CO2 with medium being refreshed every 2–3 days.
(§3) One million MRSA or PAO1, or luminescent MRSA-lux or PAO1-lux, or fluorescently-tagged MRSA-FarRed or PAO1-mCherry resuspended in PBS were seeded (5 μl of 2 × 10^8 CFU/ml) in the center of the skin model, cultured at 37 °C and 7.3% CO2 to allow the establishment of bacterial biofilms. One day or three days after inoculation, 30 μl of 0.1% (1 mg/ml) or 0.4% (4 mg/ml) DJK-5 peptide was added on top of the biofilm for 4 h. […] To visualize biofilms, skin samples seeded with luminescent bacteria were imaged using the ChemiDoc Imaging System (Bio-Rad). To quantify bacterial counts, skin samples, together with the filter inserts, were excised using a disposable scalpel (VWR, Radnor, PA), sonicated in 1.5 ml PBS, vortexed, serially diluted, and plated on LB agar plates. The cut-off of the Y-axis in each figure indicates the detection limit of CFU count while bars indicate the geometric mean of recovered CFU.

PAO1-lux biofilm = experiment: One-day or three-day PAO1-lux biofilm on N/TERT epidermal skin model, CFU count and luminescence; assay type: cell-based, Pseudomonas aeruginosa; details: for antibiofilm activity (CFU recovered) against pre-established PAO1-lux biofilm: peptide 0.1% topical, 4 h, 5 to 6 biological replicates, Kruskal–Wallis, Dunn's test versus control
Text: as §1, §2, §3

N/TERT epidermal skin [2] = assay type: cell-based, human
Protocol: (§4) Thermal damage was created by burning 10-day air–liquid interface skins at 100 °C for 4 s with a digital soldering iron (FX888D, American Hakko Products, Inc., Santa Clarita, CA). The skin filter inserts were transferred to 12-well plates (Sigma-Aldrich) containing 800 μl/well fresh culture medium prior to bacterial infection. MRSA biofilm was established by seeding 2 × 10^6 CFU in 5 μl PBS on top of the thermal damaged skin and cultured at 37 °C and 5% CO2 for 24 h. DJK-5 peptide (30 μl of 0.4%) alone or in combination with 0.01%, 0.1%, or 0.4% 1002 was administered on top of the pre-formed biofilm. Skin samples were collected 24 h post peptide treatment for colony count.
(§5) At the time of colony quantification, culture supernatants below the skin filter inserts were harvested for measuring cytotoxicity by the lactate dehydrogenase assay using a Cytotoxicity Detection Kit (Roche Diagnostics, Basel, Switzerland), according to the manufacturer’s instructions. Untreated skin samples or skin samples treated with 5% Triton X-100 were used as negative (0% toxicity) or positive (100% toxicity) control, respectively. Culture supernatants were also used to measure IL-1β and IL-8 production using ELISA kits from eBioscience (San Diego, CA).

[3] = system: MRSA (USA300-LAC) biofilm on burned skin; experiment: MRSA USA300 thermal wounding skin model, colony count; assay type: cell-based, Staphylococcus aureus
Protocol: as §3
as §4, with “DJK-5 peptide (30 μl of 0.4%) alone or in combination with 0.01%, 0.1%, or 0.4% 1002 was administered on top of the pre-formed biofilm. Skin samples were collected 24 h post peptide treatment for colony count.” left out

IL-1β production = experiment: IL-1β ELISA of culture supernatant, MRSA-infected burned skin; assay type: cell-based, human
Protocol: as §4, §5

[4] = system: P. aeruginosa PAO1 biofilm; experiment: One-day PAO1 biofilm on N/TERT epidermal skin model, CFU count; assay type: cell-based, Pseudomonas aeruginosa; details: 1-day biofilm; 0.4% (120 µg) DJK-5, 4 h; control 1.3 × 10^8 CFU/skin; geometric mean of 5 to 8 biological replicates
Text: as §1, with “All P. aeruginosa strains were grown in LB under the same conditions as mentioned above, subcultured in LB medium, and resuspended in PBS at 2 × 10^8 CFU/ml before seeding.” left out
One million MRSA or PAO1, or luminescent MRSA-lux or PAO1-lux, or fluorescently-tagged MRSA-FarRed or PAO1-mCherry resuspended in PBS were seeded (5 μl of 2 × 10^8 CFU/ml) in the center of the skin model, cultured at 37 °C and 7.3% CO2 to allow the establishment of bacterial biofilms. […] To quantify bacterial counts, skin samples, together with the filter inserts, were excised using a disposable scalpel (VWR, Radnor, PA), sonicated in 1.5 ml PBS, vortexed, serially diluted, and plated on LB agar plates. […]

N/TERT epidermal skin [5] = assay type: cell-based, human; remark: listed apart in the source
Text: as §5, with “CA). […]” for “CA).”
(§6) Supplementary Fig 4. Burned skin without infection and 2-day biofilm on skin without thermal damage had minimal changes in cytotoxicity and cytokine production compared to skin control without infection and thermal damage.
(§7) Thermally damaged epidermal skin was mock infected with PBS for 24 hours, followed by 24 hours treatment with 0.4% DJK-5 or water (a, b). The cytotoxicity (a) and IL-8 production (b) from culture supernatant beneath skin was determined. One day pre-established MRSA-lux and PAO1-lux skin biofilm was treated with vehicle control-water for 24 hours, changes in luminescence signal (c), bacteria load (d), skin cytotoxicity (e) and IL-8 level (f) was quantified. Error bars indicate mean with SD (n=3). One-way ANOVA, Dunnett’s multiple comparisons test (* P ≤ 0.05; ** P ≤ 0.01). […]

IL-8 production [6] = assay type: cell-based, human
Text: as §5, with “CA). […]” for “CA).”
as §6, §7

IL-8 production [7] = experiment: IL-8 ELISA of culture supernatant, MRSA-infected burned skin; assay type: cell-based, human; details: burned skin with MRSA biofilm; 0.4% DJK-5, 24 h; ELISA of media below filter
Protocol: as §4, §5

In the case of “RRWIRVAVILRV [RI-1018, synthetic host defense peptide]”, the “antibiofilm activity (CFU recovered) against pre-established MRSA-lux biofilm” value ([1]; 1-day biofilm, 4 h) is reported as “comparable antibiofilm activity against MRSA-lux and PAO1-lux” and the “antibiofilm activity (CFU recovered) against pre-established PAO1-lux biofilm” value (PAO1-lux biofilm; 1-day biofilm) is reported as “comparable antibiofilm activity against MRSA-lux and PAO1-lux”.
“VQRWLIVWRIRK [compound 1002, Innate defense regulator peptide, a bactenecin derivative; anti-inflammatory synthetic HDP]” was tested, and the “cytotoxicity from MRSA infected burned skin” value (N/TERT epidermal skin [2]) was “significant decreases”, the “reduction in bacterial count compared to untreated biofilms” value ([3]; burned skin with MRSA biofilm, 0.4% 1002 alone, 24 h) was 17 fold and the “pro-inflammatory IL-1β release from MRSA infected burned skin” value (IL-1β production; 1002 treatment alone, 24 h, ELISA) was “significant decreases”. For the same molecule, the “antibiofilm activity (CFU recovered) against pre-established MRSA-lux biofilm” value ([1]; 1-day biofilm, 4 h) was “All of the peptides except 1002 significantly reduced” and the “antibiofilm activity (CFU recovered) against pre-established PAO1-lux biofilm” value (PAO1-lux biofilm; 1-day biofilm) was “All of the peptides except 1002 significantly reduced”.
In the case of “VQWRRIRVWVIR [DJK-6, synthetic host defense peptide]”, the “antibiofilm activity (CFU recovered) against pre-established MRSA-lux biofilm” value ([1]; 1-day biofilm, 4 h) is reported as “superior effects in eradicating MRSA-lux biofilms; also recorded: superior activity in eradicating MRSA biofilm”.
“KRIRWVILWRQV [RI-1002, synthetic host defense peptide]” was tested, and the “antibiofilm activity (CFU recovered) against pre-established MRSA-lux biofilm” value ([1]; 1-day biofilm, 4 h) was “comparable antibiofilm activity against MRSA-lux and PAO1-lux” and the “antibiofilm activity (CFU recovered) against pre-established PAO1-lux biofilm” value (PAO1-lux biofilm; 1-day biofilm) was “comparable antibiofilm activity against MRSA-lux and PAO1-lux”.
“VQWRAIRVRVIR [DJK-5, D-enantiomeric antibiofilm synthetic host defense peptide]” was tested, and the “bacterial load on burned skin” value ([3]; skin burned 100 °C 4 s, 24 h MRSA biofilm, 0.4% DJK-5 (120 μg) in PBS topical, control 7.8 × 10^8 CFU/skin, geometric mean) was 3.2 × 10^5 CFU/skin, the IL-1β production (IL-1β production; burned skin with MRSA biofilm, 0.4% DJK-5, 24 h, ELISA of media below filter) was “significantly suppressed” and the “geometric mean of recovered non-luminescent PAO1 bacteria” value [4] was 4.9 × 10^3 CFU/skin. For the same molecule, the “increase in observed cytotoxicity compared to control skin” value (N/TERT epidermal skin [5]) was ~ 5%, the “IL-8 production compared to control skin” value (IL-8 production [6]) was “slightly increased IL-8 production” and the “luminescence of MRSA-lux biofilm” value ([1]; 1-day biofilm, 0.1% (30 μg total peptide), 4 h, ChemiDoc imaging) was “reduced the area of colonization”. For the same molecule, the “geometric mean of MRSA-lux bacteria recovered” value ([1]; 1-day biofilm, 0.1% DJK-5 (30 μg) topical, 4 h) was 1.6 × 10^6 CFU/skin, the “luminescence of MRSA-lux biofilm” value ([1]; 1-day biofilm, 0.4% (120 μg), 4 h, ChemiDoc imaging) was “completely abolished the luminescence” and the “geometric mean of MRSA-lux bacteria recovered” value ([1]; 1-day biofilm, 0.4% DJK-5 (120 μg) topical, 4 h) was 2.1 × 10^4 CFU/skin. For the same molecule, the “antibiofilm activity (CFU recovered) against pre-established MRSA-lux biofilm” value ([1]; 1-day biofilm, 4 h) was “comparable antibiofilm activity against MRSA-lux and PAO1-lux; also recorded: superior activity in eradicating MRSA biofilm”, the “reduction of bacterial load” value ([1]; 3-day MRSA-lux biofilm, 0.4% DJK-5, within 4 h of treatment, versus untreated) was 4 log orders of magnitude and the “luminescence of MRSA-lux biofilm” value ([1]; 3-day biofilm, 0.4% DJK-5, 4 h) was “successfully wiped out the bacterial luminescence”. For the same molecule, the “geometric mean of recovered PAO1-lux bacteria” value (PAO1-lux biofilm; 1-day biofilm, 0.4% (120 µg) DJK-5, 4 h, control 8.9 × 10^7 CFU/skin, geometric mean of 5 to 8 biological replicates) was 1.9 × 10^2 CFU/skin, the “luminescence of PAO1-lux biofilm” value (PAO1-lux biofilm; 1-day biofilm, 0.4% DJK-5, 4 h) was “evident reduction in the luminescence signal” and the “antibiofilm activity (CFU recovered) against pre-established PAO1-lux biofilm” value (PAO1-lux biofilm; 1-day biofilm) was “comparable antibiofilm activity against MRSA-lux and PAO1-lux”. For the same molecule, the “bacterial burden (colony count)” value (PAO1-lux biofilm; 3-day PAO1-lux biofilm, 0.4% DJK-5, 4 h) was “significantly decreased bacterial burden”, the “luminescence of PAO1-lux biofilm” value (PAO1-lux biofilm; 3-day biofilm, 0.4% DJK-5, 4 h) was “wiped out luminescence signal” and the IL-8 production (IL-8 production [7]) was “significantly suppressed”.
For `C/C(=C\C(=O)OCCCCCCCCC(=O)O)C[C@@H]1OC[C@H](C[C@@H]2O[C@H]2[C@@H](C)[C@H](C)O)[C@@H](O)[C@H]1O` [mupirocin, reference compound], the “bacterial load of MRSA-lux in the biofilm” value ([1]; 1-day biofilm, 1% mupirocin dissolved in 10% DMSO, topical, 4 h) was “did not have appreciable impact; also recorded: almost inactive”.
For “VRLIVAVRIWRR [compound 1018, synthetic host defense peptide]”, the “antibiofilm activity (CFU recovered) against pre-established MRSA-lux biofilm” value ([1]; 1-day biofilm, 4 h) was “superior effects in eradicating MRSA-lux biofilms; also recorded: superior activity in eradicating MRSA biofilm”.
